Test results published in the supplement of paper PMC11208160.

Assay: recombinant barcode read abundance after kanamycin selection (control-corrected) (log10(CPM+1)); higher = more efficient recombination; sequences stand for … in AGTGCAGAGAAAATCGGCCAGTTTTCTCTGCCTGCAGTCCGCATGCCGT…AGATTTATGCAGCGGACTGCCTTTCTCCCAAAGTGATAAACCGGACAGTATCATGGACCGGTTTTCCCGGTAATCCGTATTTGCAAGGTTGGTTTCACT; site = the 11-nt target
Method in brief: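 Pooled oligos, each joining a target to an IS621 bridge RNA target-binding loop, were cloned and co-electroporated with a donor plasmid into E. coli. Selective plates carried chloramphenicol/ampicillin/kanamycin and 0.1 mM IPTG, while chloramphenicol/ampicillin LB agar served as control, with two replicates of each. Recombination efficiency rests on averaged, control-corrected counts per million of barcodes at recombinant junctions, shown as log10(CPM+1).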
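Also: IS621 recombinase and bridge RNA in Escherichia coli cells.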

Sequence | recombinant barcode read abundance (log10)
TCAGGAGCTTGGGTTCTAACCTGTTGCTA (site CATATGACTAG) | 0.288
TCAGGAGCTTGGGTTCTAACCTGTTGCTA (site TCAGGAGCTTA) | 0.325
TCATAGCCTTGGGTTCTAACCTGTTGCTG (site TCAAAGCCTCA) | 0.131
TCATAGCCTTGGGTTCTAACCTGTTGCTG (site TCACAGCCTCA) | 0.0283
TCATAGCCTTGGGTTCTAACCTGTTGCTG (site TCAGAGCCTCA) | 0.087
TCATAGCCTTGGGTTCTAACCTGTTGCTG (site TCATAGCCTCA) | 0.62
TCATATTCTTGGGTTCTAACCTGTTGCCT (site TCAAATTCTAG) | 0.17
TCATATTCTTGGGTTCTAACCTGTTGCCT (site TCACATTCTAG) | 0.0604
TCATATTCTTGGGTTCTAACCTGTTGCCT (site TCAGATTCTAG) | 0.069
TCATATTCTTGGGTTCTAACCTGTTGCCT (site TCATATTCTAG) | 0.0782
TCATGAACTTGGGTTCTAACCTGTTGCCT (site TCATGAACTAG) | 0.256
TCATGAACTTGGGTTCTAACCTGTTGCCT (site TTATGATCTAG) | 0.0186
TCATTAGCTTGGGTTCTAACCTGTTGCCG (site GGGCATCCTAT) | 0.0935
TCATTAGCTTGGGTTCTAACCTGTTGCCG (site TCATTAGCTCG) | 0.315
TCATTCGCTTGGGTTCTAACCTGTTGCCT (site TCATTCGCTAG) | 0.857
TCATTCGCTTGGGTTCTAACCTGTTGCCT (site TCCTTAGCTAG) | 0.186
TCCAAACCTTGGGTTCTAACCTGTTGCGG (site TCCAAACCTCC) | 2.04
TCCAAACCTTGGGTTCTAACCTGTTGCGG (site TCCAACACTCC) | 0.00629

Sequence | recombinant barcode read abundance (log10)
TCCAGTCCTTGGGTTCTAACCTGTTGCTA (site TCCAGTCCTTA) | 0.688
TCCAGTCCTTGGGTTCTAACCTGTTGCTA (site TCCATCCCTTA) | 0.0632
TCCCAAACTTGGGTTCTAACCTGTTGCAC (site CTAACTGCTAC) | 0.0667
TCCCAAACTTGGGTTCTAACCTGTTGCAC (site TCCCAAACTGT) | 0.657
TCCCACACTTGGGTTCTAACCTGTTGCCA (site ACCCACACTCG) | 0.129
TCCCACACTTGGGTTCTAACCTGTTGCCA (site TCCCACACTTG) | 1.33
TCCCAGCCTTGGGTTCTAACCTGTTGCTG (site TCCCAGCCTCA) | 0.0849
TCCCAGCCTTGGGTTCTAACCTGTTGCTG (site TCCCATCCTAA) | 0.274
TCCCATCCTTGGGTTCTAACCTGTTGCTT (site TCCCAGCCTCA) | 0.524
TCCCATCCTTGGGTTCTAACCTGTTGCTT (site TCCCATCCTAA) | 0.114
TCCCATGCTTGGGTTCTAACCTGTTGCCT (site TCCCATACTAG) | 0.19
TCCCATGCTTGGGTTCTAACCTGTTGCCT (site TCCCATCCTAG) | 0.151
TCCCATGCTTGGGTTCTAACCTGTTGCCT (site TCCCATGCTAG) | 1.17
TCCCATGCTTGGGTTCTAACCTGTTGCCT (site TCCCATTCTAG) | 0.0569
TCCCCGACTTGGGTTCTAACCTGTTGCCG (site TCCCCGACTCG) | 1.03
TCCCCGACTTGGGTTCTAACCTGTTGCCG (site TCGCCTACTCG) | 0.03
TCCCCGGCTTGGGTTCTAACCTGTTGCGG (site CAAAACTCTAA) | 0.262
TCCCCGGCTTGGGTTCTAACCTGTTGCGG (site TCCCCGGCTCC) | 1.48
